Source: patent US9416145B2, “Compositions and methods for inhibiting activity of hypoxia-inducible transcription factor complex and its use for treatment of tumors” (priority 2012, dated 2016)

Test system: VEGF mRNA in MCF7 cells
Test: Real-time quantitative RT-PCR of VEGF mRNA in MCF7 cells
Format: cell-based, human
Conditions: hypoxic MCF7 cells, 200 nM and 600 nM
Experimental: We used real-time quantitative RT-PCR assays to determine the relative levels of VEGF mRNA in hypoxic cells treated with ETP compounds and control DKP compound. In parallel, cells treated with vehicle were used as controls. mRNA level of β-glucuronidase gene was used as a control in determining the relative levels of transcription.
MCF7 cells were maintained in RPMI-1640 media (Sigma) supplemented with 10% fetal bovine serum (Irvine Scientific). Cells were plated in 6-well dishes at a density of 2.4×10^5 cells/well using 2 mL of a 1.2×10^5 cell/mL suspension. […] After a 6 h incubation period at 37° C. in a humidified atmosphere with 5% CO2, hypoxia was induced by adding desferrioxamine mesylate (DFO, Sigma) to a final concentration of 300 μM and incubating cells for another 18 hours. Cells were washed twice with ice cold PBS and lysed immediately. Total RNA was isolated with RNeasy kit (Qiagen) according to the manufacturer's instructions and quantified by UV absorbance. The isolated RNA was further treated with DNase I (Ambion, DNAfree kit) to remove any remaining genomic DNA. Reverse transcription was performed with Powerscript II Reverse Transcriptase (Clontech) as recommended by the manufacturer.
Quantitative Reverse Transcript PCR (qRT-PCR) was employed to determine the effect of ETP compounds on VEGF and GLUT1 genes in HeLa cells both under normoxic and hypoxic conditions. For VEGF analysis, the forward primer 5′-AGGCCAGCACATAGGAGAGA-3′ and reverse primer 5′-TTTCCCTTTCCTCGAACTGA-3′ were used to amplify a 104-bp fragment from the 3′-translated region of the gene. For GLUT1 (SLC2A1) analysis we utilized the following sequences to yield a product of 179 bp: forward sequence 5′-TAGAAACATGGTTTTGAAATGC-3′, reverse sequence 5′-GGTAACAGGGATCAAACAGATT-3′. RNA levels were standardized by quantification of the β-glucuronidase as housekeeping gene. […] Data were analyzed with Applied Biosystems Sequence Detection System, version 1.2. […]

With `CN1C(=O)[C@]2(Cc3ccc(CCc4ccc(C[C@@]56SS[C@@](CO)(C(=O)N5C)N(C)C6=O)cc4)cc3)SS[C@@]1(CO)C(=O)N2C` (racemic) [LS72, 4,4′-((ethane-1,2-diylbis(4,1-phenylene))bis(methylene))bis(1-(hydroxymethyl)-5,7-dimethyl-2,3-dithia-5,7-diazabicyclo[2.2.2]octane-6,8-dione)] the “effect on VEGF mRNA level (in words)” value was “downregulated VEGF”.
